22 compounds from ChEMBL document CHEMBL1135516, “Three-dimensional quantitative structure-activity relationship analysis of ligand binding to human sequence antidigoxin monoclonal antibodies using comparative molecular field analysis” (J Med Chem, 2002) can be followed below.

SMILES strings stand for the structures.

Experiment [1] has as its system Monoclonal antibody (mAb). Kind of experiment: Binding affinity against human monoclonal antibody (mAb)-5C2.
The test system of experiment [2] is Monoclonal antibody (mAb). Put plainly: Binding affinity against human monoclonal antibody (mAb)-7F2.
Experiment [3] relates to Monoclonal antibody (mAb). Kind of experiment: Binding affinity against human monoclonal antibody (mAb)-1B3.
For experiment [4], the system named is Monoclonal antibody (mAb). Put plainly: Binding affinity against human monoclonal antibody (mAb)-11E6.
Experiment [5] concerns Monoclonal antibody (mAb). Put plainly: Binding affinity against murine monoclonal antibody (mAb)-40-50.
For experiment [6], the target named is Monoclonal antibody (mAb). Put plainly: Binding affinity against Monoclonal antibody mAB-1B3 using [3H]digitoxin as radioligand.
Experiment [7] deals with Monoclonal antibody (mAb). Kind of experiment: Binding affinity against Monoclonal antibody mAB-1B3 using [3H]digoxin as radioligand.
For experiment [8], the target named is Monoclonal antibody (mAb). Kind of experiment: Kinetic parameter against Monoclonal antibody mAB-1B3.

`CO[C@H]1[C@H](O)[C@H](O[C@H]2CC[C@@]3(C)[C@H](CC[C@@H]4[C@@H]3CC[C@]3(C)[C@@H](C5=CC(=O)OC5)CC[C@]43O)C2)O[C@@H](C)[C@@H]1O`: the IC50 ratio in experiment [1] is 21; in experiment [2], 9.5; in experiment [3], 69; in experiment [4] it was 17. Besides, the Relative Ki in experiment [5] is 1.

Turning to `C[C@H]1O[C@@H](O[C@H]2[C@@H](O)C[C@H](O[C@H]3[C@@H](O)C[C@H](O[C@H]4CC[C@@]5(C)[C@H](CC[C@@H]6[C@@H]5CC[C@]5(C)[C@@H](C7=CC(=O)OC7)[C@@H](O)C[C@]65O)C4)O[C@@H]3C)O[C@@H]2C)C[C@H](O)[C@@H]1O`, the IC50 ratio was 130 in experiment [1], 81 in experiment [2], 11 in experiment [3] and 73 in experiment [4]. In experiment [5], this compound yielded a Relative Ki of 16.

By Ki is commonly meant a measure of affinity in units of concentration, obtained from inhibition or displacement. The low end stands for a stronger hold on the target, the high end for a looser hold on the target. As a reminder, the Kd is the equilibrium constant for the complex coming apart. Read a low Kd as higher affinity. Regarding `C[C@H]1O[C@@H](O[C@H]2[C@@H](O)C[C@H](O[C@H]3[C@@H](O)C[C@H](O[C@H]4CC[C@@]5(C)[C@H](CC[C@@H]6[C@@H]5C[C@@H](O)[C@]5(C)[C@@H](C7=CC(=O)OC7)CC[C@]65O)C4)O[C@@H]3C)O[C@@H]2C)C[C@H](O)[C@@H]1O` [DIGOXIN], the IC50 ratio in experiment [1], in experiment [2], in experiment [3] and in experiment [4] was 1 each time. Further, the Ki in experiment [6] was 0.8 nM; in experiment [7], 1.2 nM. In addition, the affinity in experiment [8], expressed as Kd, was 3.1 nM. Moreover, the Relative Ki in experiment [5] is 1.

For the compound `CC(=O)O[C@H]1CC[C@@]2(C)[C@H](CC[C@@H]3[C@@H]2C[C@@H](O)[C@]2(C)[C@@H](C4=CC(=O)OC4)CC[C@]32O)C1`, the IC50 ratio in experiment [1] is 140; in experiment [2], 110; in experiment [3] it was 70; in experiment [4], 96. Moreover, in experiment [5], the Relative Ki was found to be 0.7.

As for `CO[C@H]1C[C@H](O[C@H]2CC[C@@]3(C)[C@H](CC[C@@H]4[C@@H]3CC[C@]3(C)[C@@H](C5=CC(=O)OC5)[C@@H](OC(C)=O)C[C@]43O)C2)O[C@@H](C)[C@@H]1O`, the IC50 ratio entry is “No inhibition” in experiment [1], 3200 in experiment [2], 180 in experiment [3] and 3100 in experiment [4]. Also, the Relative Ki in experiment [5] was 200.

With `C[C@@H]1O[C@@H](O[C@H]2C[C@@H](O)[C@]3(CO)[C@H]4[C@H](O)C[C@]5(C)[C@@H](C6=CC(=O)OC6)CC[C@]5(O)[C@@H]4CC[C@]3(O)C2)[C@H](O)[C@H](O)[C@H]1O`, the IC50 ratio entry is “No inhibition” in experiment [1], 39000 in experiment [2], 4100 in experiment [3] and 38000 in experiment [4]. The Relative Ki in experiment [5] was 7.

Turning to `C[C@@H]1O[C@H](O[C@H]2CC[C@@]3(C)[C@H](CC[C@@H]4[C@@H]3CC[C@]3(C)[C@@H](C5=CC(=O)OC5)CC[C@]43O)C2)[C@@H](O)[C@@H](O)[C@@H]1O`, the IC50 ratio in experiment [1] is 21; in experiment [2] it was 22; in experiment [3], 40; in experiment [4], 29. In experiment [5], this compound showed a Relative Ki of 0.6.

With `CC(=O)O[C@H]1CC[C@]2(C=O)[C@H]3CC[C@]4(C)[C@@H](C5=CC(=O)OC5)CC[C@]4(O)[C@@H]3CC[C@]2(O)C1`, the IC50 ratio in experiment [1] is 44; in experiment [2], 17; in experiment [3], 600; in experiment [4], 18. The Relative Ki in experiment [5] is 10.

As for `C[C@]12CC[C@H](O)C[C@H]1CC[C@@H]1[C@@H]2CC[C@]2(C)[C@@H](C3=CC(=O)OC3)CC[C@]12O` [DIGITOXIGENIN], the IC50 ratio in experiment [1] turned out to be 14; in experiment [2], 16; in experiment [3], 1800; in experiment [4], 14. Further, the Ki in experiment [6] came to 880 nM; in experiment [7] it was 1000 nM. The compound also registered a Relative Ki in experiment [5] of 2.

Consider `CC(=O)[C@H]1CC[C@H]2[C@@H]3CCC4=CC(=O)CC[C@]4(C)[C@H]3CC[C@]12C` [PROGESTERONE], for which the IC50 ratio in experiment [1] was determined as 55; in experiment [2], 69; in experiment [3], 36000; in experiment [4] it was 100. The affinity in experiment [7], expressed as Ki, was 36000 nM.

In turn, `C[C@]12CC[C@H](O)C[C@H]1CC[C@@H]1[C@@H]2C[C@@H](O)[C@]2(C)[C@@H]([C@@H]3COC(=O)C3)CC[C@]12O` displayed a Relative Ki in experiment [5] of 300.

As to `C[C@H]1O[C@@H](O[C@H]2[C@@H](O)C[C@H](O[C@H]3[C@@H](O)C[C@H](O[C@H]4CC[C@@]5(C)[C@H](CC[C@@H]6[C@@H]5CC[C@]5(C)[C@@H](C7=CC(=O)OC7)CC[C@]65O)C4)O[C@@H]3C)O[C@@H]2C)C[C@H](O)[C@@H]1O` [DIGITOXIN], the IC50 ratio amounted to 10 in experiment [1], 8 in experiment [2], 0.3 in experiment [3] and 1.7 in experiment [4]. The figures for the Ki in experiment [6] and in experiment [7] were 0.2 nM and 0.1 nM, respectively. In experiment [8], this compound had a Kd of 0.6 nM. In addition, the Relative Ki in experiment [5] was 1.

Turning to `C[C@]12CC[C@H]3[C@@H](CC[C@]4(O)C[C@@H](O)CC[C@]34C=O)[C@@]1(O)CC[C@@H]2C1=CC(=O)OC1`, the IC50 ratio amounted to 470 in experiment [1], 84 in experiment [2], 3000 in experiment [3] and 66 in experiment [4]. In experiment [5], this compound showed a Relative Ki of 4.

Compound `CC(=O)O[C@H]1C[C@]2(O)[C@@H]3CC[C@@H]4C[C@@H](O)CC[C@]4(C)[C@H]3CC[C@]2(C)[C@H]1C1=CC(=O)OC1` yielded a Relative Ki in experiment [5] of 8600.

On to `C[C@]12CC[C@H](O)C[C@H]1CC[C@@H]1[C@@H]2C[C@@H](O)[C@]2(C)[C@@H](C3=CC(=O)OC3)CC[C@]12O` [DIGOXIGENIN], for which the IC50 ratio in experiment [1] was 2.9; in experiment [2], 4.6; in experiment [3], 2700; in experiment [4], 6.2. Moreover, the Ki in experiment [6] worked out at 1700 nM; in experiment [7], 3100 nM. The compound further displayed a Relative Ki in experiment [5] of 2.

For `C[C@H]1O[C@@H](O[C@H]2[C@@H](O)C[C@H](O[C@H]3[C@@H](O)C[C@@H](O[C@H]4CC[C@@]5(C)[C@H](CC[C@@H]6[C@@H]5C[C@@H](O)[C@]5(C)[C@@H](C7=CC(=O)OC7)CC[C@]65O)C4)O[C@@H]3C)O[C@@H]2C)C[C@H](O)[C@@H]1O`, the Relative Ki in experiment [5] was 280.

Turning to `CC(=O)O[C@H]1C[C@]2(O)[C@@H]3CC[C@@H]4C[C@@H](O[C@H]5C[C@H](O)[C@H](O)[C@@H](C)O5)CC[C@]4(C)[C@H]3CC[C@]2(C)[C@H]1C1=CC(=O)OC1`, the Relative Ki in experiment [5] was determined as 4.

Consider `C[C@H]1O[C@@H](O[C@H]2CC[C@@]3(C)[C@H](CC[C@@H]4[C@@H]3C[C@@H](O)[C@]3(C)[C@@H](C5=CC(=O)OC5)CC[C@]43O)C2)C[C@H](O)[C@@H]1O`, for which the IC50 ratio in experiment [1] was 1.3; in experiment [2], 1; in experiment [3], 5.9; in experiment [4] it was 0.9. The Relative Ki in experiment [5] amounted to 0.6.

With `C[C@]12C[C@@H](O)[C@H]3[C@@H](CC[C@]4(O)C[C@@H](O)C[C@@H](O)[C@]34CO)[C@@]1(O)CC[C@@H]2C1=CC(=O)OC1`, the IC50 ratio result was “No inhibition” in experiment [1], 13000 in experiment [2], 52000 in experiment [3] and 6600 in experiment [4]. In experiment [5], the Relative Ki came to 9.

Take `C[C@]12CC[C@H](O)C[C@H]1CC[C@@H]1[C@@H]2CC[C@]2(C)[C@@H](C3=CC(=O)OC3)[C@@H](O)C[C@]12O`: the IC50 ratio in experiment [1] was determined as 2700; in experiment [2], 2000; in experiment [3], 4700; in experiment [4], 2100. In experiment [5], this compound came in with a Relative Ki of 93.

Take `CC(=O)O[C@H]1C[C@]2(O)[C@@H]3CC[C@@H]4C[C@@H](O[C@@H]5C[C@H](O)[C@H](O[C@H]6C[C@H](O)[C@H](O[C@H]7C[C@H](O)[C@H](O)[C@@H](C)O7)[C@@H](C)O6)[C@@H](C)O5)CC[C@]4(C)[C@H]3CC[C@]2(C)[C@H]1C1=CC(=O)OC1`: the IC50 ratio in experiment [1] was found to be 290; in experiment [2], 330; in experiment [3] it was 49; in experiment [4], 400. The compound also displayed a Relative Ki in experiment [5] of 58.

On to `C[C@H]1O[C@@H](O[C@H]2[C@@H](O)C[C@H](O[C@H]3[C@@H](O)C[C@H](O[C@H]4CC[C@@]5(C)[C@H](CC[C@@H]6[C@@H]5CC[C@]5(C)[C@@H](C7=CC(=O)OC7)[C@@H](OC=O)C[C@]65O)C4)O[C@@H]3C)O[C@@H]2C)C[C@H](O)[C@@H]1O`, for which, in experiment [5], the Relative Ki amounted to 35.
